From US10294247B2, “Beta-lactamase inhibitors” (VenatoRx Pharmaceuticals, Inc., priority 2014, dated 2019) come the findings set out here.

Holding throughout (type): cell-based
In test [1] the test system is E. coli expressing the Class A Extended Spectrum Beta-Lactamase (ESBL) CTX-M-15. The test is described as follows: broth microdilution MIC assay, E. coli CTX-M-15. To be noted: Escherichia coli, read-out: MIC alone. An excerpt: (§1) To determine the ability of test compounds to potentiate the inhibition of the growth of bacterial strains that produce beta-lactamase enzymes, classic cell based broth microdilution MIC assays are employed. Six bacteria strains producing beta-lactamase enzymes are used: E. coli expressing the Class A Extended Spectrum Beta-Lactamase (ESBL) CTX-M-15, E. cloacae expressing the Class C P99, K. pneumoniae expressing the Class A carbapenemase KPC-3, P. aeruginosa expressing the Class B carbapenemase VIM-2, K. pneumoniae expressing the class A carbapenemase KPC-2 and the class B carbapenemase VIM-4, and S. aureus producing the Class A penicillinase PC-1. The assay is conducted in Cation Adjusted Mueller Hinton Broth (CAMHB, BD #212322, BD Diagnostic Systems, Sparks, Md.). Bacteria strains are grown for 3-5 hours in CAMBH broth. Test compounds are added to a microtiter plate in 2-fold serial dilutions in CAMHB in a final concentration range of 32 μg/mL to 0.25 μg/ml. An overlay of CAMHB containing a Beta-lactam is added to the compounds at a final static concentration of 4 μg/mL. […] After inoculation the plates are incubated for 16-20 hours at 37° C. then the Minimal Inhibitory Concentration (MIC) of the test compound is determined visually.

In test [2] the test system is E. cloacae expressing the Class C P99. The test is described as follows: broth microdilution MIC assay, E. cloacae P99. As to conditions: Enterobacter cloacae, read-out: MIC alone.
Source text: as §1
(In broth dilution the organism is exposed to a series of concentrations in liquid medium.)

For test [3], the system named is K. pneumoniae expressing the Class A carbapenemase KPC-3. The test is described as follows: broth microdilution MIC assay, K. pneumoniae KPC-3. As to conditions: Klebsiella pneumoniae, read-out: MIC alone.
Source text: as §1

Test [4] deals with K. pneumoniae expressing the class A carbapenemase KPC-2 and the class B carbapenemase VIM-4. The test can be described thus: broth microdilution MIC assay, K. pneumoniae KPC-2 and VIM-4. To be noted: Klebsiella pneumoniae; partner antibiotic alone, no inhibitor; K. pneumoniae expressing KPC-2 and VIM-4; CAMHB.
Source text: as §1

In test [5] the test system is P. aeruginosa expressing the Class B carbapenemase VIM-2. The test is described as follows: broth microdilution MIC assay, P. aeruginosa VIM-2. To be noted: Pseudomonas aeruginosa, read-out: MIC alone.
Source text: as §1

The test system of test [6] is S. aureus producing the Class A penicillinase PC-1. The test can be described thus: broth microdilution MIC assay, S. aureus PC-1. To be noted: Staphylococcus aureus; partner antibiotic alone, no inhibitor; S. aureus producing Class A penicillinase PC-1; CAMHB.
Source text: as §1

Consider `CC(C)(O/N=C(\C(=O)N[C@@H]1C(=O)N2C(C(=O)[O-])=C(C[n+]3ccccc3)CS[C@H]12)c1csc(N)n1)C(=O)O` [Ceftazidime], for which the MIC was more than 128 µg/mL in test [1] and 128 µg/mL in test [2].
Take `C[C@@H](O)[C@H]1C(=O)N2C(C(=O)O)=C(S[C@@H]3CN[C@H](C(=O)N(C)C)C3)[C@H](C)[C@H]12` [Meropenem]: the minimal inhibitory concentration (MIC) is more than 128 µg/mL in test [3], 64 µg/mL in test [4] and 16 µg/mL in test [5].
Regarding `CCN1CCN(C(=O)N[C@@H](C(=O)N[C@@H]2C(=O)N3[C@@H]2SC(C)(C)[C@@H]3C(=O)O)c2ccccc2)C(=O)C1=O` [Piperacillin], the MIC in test [6] was determined as 64 µg/mL.

The MIC is the least concentration at which growth counts as inhibited.
